Molecules are shown by their SMILES. Several values for one entry are separate records, joined by “and”; a condition that tells them apart may be missing. Equal values may be shown once. Read-outs that look alike come from different tables or passages of the source.

In data set [1] the target is T1, FMDV 3Dpol (Foot-and-mouth disease virus, UniProt P03311). The data set is described as follows: biochemical.
Another data set can be described thus: in vitro. Conditions: hamster.
In data set [2] the target is HIV-1 reverse transcriptase (HIV-1 RT) (Human immunodeficiency virus type 1 group M subtype B, UniProt P03366). In kind it is biochemical.
Data set [3] concerns the target Klenow Fragment (KF) of E. coli DNA polymerase I (Escherichia coli, UniProt P00582). In kind it is biochemical.
For data set [4], the target named is T1, FMDV 3Dpol. In words: biochemical. To be noted: IC50 of 3Dpol inhibition (gel-based).
In the next data set the target is WT 3Dpol (Foot-and-mouth disease virus, UniProt P03311). The data set is described as follows: biochemical. To be noted: IC50 (filter binding assay).
Chain of WT 3Dpol (P03311 1858-2327 limits assumed): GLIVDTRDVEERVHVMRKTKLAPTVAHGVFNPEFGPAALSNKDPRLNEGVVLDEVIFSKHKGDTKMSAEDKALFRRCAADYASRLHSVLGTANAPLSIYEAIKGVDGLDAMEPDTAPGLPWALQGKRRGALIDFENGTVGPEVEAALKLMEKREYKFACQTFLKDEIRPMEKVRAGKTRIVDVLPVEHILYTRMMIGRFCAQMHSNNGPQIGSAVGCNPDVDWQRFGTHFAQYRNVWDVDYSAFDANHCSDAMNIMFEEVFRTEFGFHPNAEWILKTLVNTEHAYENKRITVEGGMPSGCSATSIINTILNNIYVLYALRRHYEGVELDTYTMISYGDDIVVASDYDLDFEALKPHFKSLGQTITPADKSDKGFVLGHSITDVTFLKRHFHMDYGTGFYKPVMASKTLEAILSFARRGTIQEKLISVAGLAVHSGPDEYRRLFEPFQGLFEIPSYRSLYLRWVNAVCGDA
For a further data set, the system named is FMDV A24 Cruzeiro. In words: microbe, parasite or virus in culture. Format: cell-based, Foot-and-Mouth Disease Virus.
For data set [5], the target named is T1, FMDV 3Dpol. The data set is described as follows: biochemical. Format: biochemical.
In another data set the test system is FMDV. Conditions: cited from earlier work; for EC50: read-out: EC50 (FMDV replication in cell cultures); for EC90: read-out: EC90 (FMDV replication in cell cultures).

Chain of Klenow Fragment (KF) of E. coli DNA polymerase I (P00582 324-928): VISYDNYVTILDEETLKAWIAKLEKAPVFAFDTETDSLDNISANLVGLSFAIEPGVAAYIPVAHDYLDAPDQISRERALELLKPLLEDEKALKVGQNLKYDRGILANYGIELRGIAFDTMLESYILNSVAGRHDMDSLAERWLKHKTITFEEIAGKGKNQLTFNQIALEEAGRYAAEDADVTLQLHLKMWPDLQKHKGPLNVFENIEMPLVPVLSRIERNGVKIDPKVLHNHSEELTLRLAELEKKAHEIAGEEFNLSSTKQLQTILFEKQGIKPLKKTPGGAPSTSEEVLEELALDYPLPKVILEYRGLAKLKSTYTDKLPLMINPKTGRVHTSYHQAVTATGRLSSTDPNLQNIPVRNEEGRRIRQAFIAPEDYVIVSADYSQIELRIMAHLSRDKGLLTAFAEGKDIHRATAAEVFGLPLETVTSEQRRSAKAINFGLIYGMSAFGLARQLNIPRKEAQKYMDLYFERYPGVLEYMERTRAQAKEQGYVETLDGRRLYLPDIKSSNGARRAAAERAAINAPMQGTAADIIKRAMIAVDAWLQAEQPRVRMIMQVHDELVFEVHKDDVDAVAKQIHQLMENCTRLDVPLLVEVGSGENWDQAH
T1 sequence (P03311 1858-2327 limits assumed): as the sequence (P03311 1858-2327 limits assumed) above

Usually IC50 stands for the concentration needed to halve the response being measured. Consider `Cc1cn([C@@H]2O[C@H](COP(=O)(O)OP(=O)(O)OP(=O)(O)O)C[C@H]2O)c(=O)[nH]c1=O` [DMUT, 3′-deoxy-5-methyl uridine triphosphate], for which half-maximal inhibition against FMDV 3Dpol [1] (IC50) required 0.68 µM.
On to `O=C(Sc1cccs1)c1cncc(C#Cc2ccccc2)c1` [4H6], for which the CC50 in the data set “in vitro” was more than 100 µM. In addition, the “inhibition of HIV-1 RT polymerase activity” value in [2] was “No significant inhibition”. Besides, the “inhibition of KF polymerase activity” value in data set [3] is “No significant inhibition”. The same molecule showed an IC50 against FMDV 3Dpol [4] of 8 µM.
In turn, `N#CC(C(=O)Nc1cccc(C(F)(F)F)c1)C(=S)Nc1ccccc1Cl` (centres unmarked) [3A11] displayed a CC50 in “in vitro” of 70 µM. Besides, the IC50 against FMDV 3Dpol [4] was ~2 µM and 2 µM.
Turning to `O=[N+]([O-])c1ccc(Sc2ccc(Cl)cc2Cl)c2nonc12` [1A8], in [2], the “inhibition of HIV-1 RT polymerase activity” value was “No significant inhibition”. In data set [3], the “inhibition of KF polymerase activity” value is listed as “No significant inhibition”. Moreover, the IC50 on FMDV 3Dpol [4] is 17.8 µM; on WT 3Dpol, 17.4 µM and 17.8 µM.
In general, EC50 refers to the concentration at which the effect is half-maximal. For orientation: EC90 means the concentration at which the effect reaches the 90% level. As usually defined, the inhibition is the share of the control response that was lost under treatment. What is called Ki is a dissociation constant, usually derived from enzyme kinetics or from competition with a known ligand. Low values mean a stronger hold on the target, high ones a looser hold on the target. In the data set “in vitro”, `O=S(=O)(NNc1ncnc2sccc12)c1ccc(Cl)cc1` [5D9] showed a CC50 of more than 100 µM. The “inhibition of HIV-1 RT polymerase activity” value in data set [2] is given as “No significant inhibition”. Also, in the data set with FMDV A24 Cruzeiro, the “antiviral potency relative to ribavirin” value was approximately 80 fold and the “inhibition of viral replication” value is given as “inhibition of viral replication”. Besides, in the data set with FMDV A24 Cruzeiro (Foot-and-mouth disease virus, BHK-21, 24 h, read-out: EC50 (virus production in FMDV-infected cells)), the concentration giving a half-maximal response (EC50) came out at 12 µM. Further, in the data set on FMDV A24 Cruzeiro (Foot-and-mouth disease virus, BHK-21, 24 h, read-out: EC90 (virus production in FMDV-infected cells)), the EC90 was determined as 20 µM. Also, in the data set with FMDV A24 Cruzeiro (Foot-and-mouth disease virus, BHK-21, read-out: inhibition of virus replication), the inhibition at 20 µM is 90%. On FMDV 3Dpol [5], the Ki was 9.4 ± 2.5 µM and the “kinetic mechanism of inhibition” value is given as “non-competitive”. The “inhibition of KF polymerase activity” value in [3] is “No significant inhibition”. Half-maximal inhibition against FMDV 3Dpol [4] (IC50) required 12 µM.
On to `C[C@@]1(O)[C@H](O)[C@@H](CO)O[C@H]1n1ccc(N)nc1=O` [2′-C-methylcytidine], for which, in the data set on FMDV, the EC50 is 10 µM and the EC90 was 15 µM.
Regarding `O=S1(=O)C=C(CSc2cccs2)c2cc(Cl)ccc21` [7F8], the CC50 in “in vitro” is more than 100 µM. For the same molecule, in data set [2], the “inhibition of HIV-1 RT polymerase activity” value was “No significant inhibition”. Also, the “kinetic mechanism of inhibition” value at FMDV 3Dpol [5] was “non-competitive”. Further, the “inhibition of KF polymerase activity” value in data set [3] was “No significant inhibition”. Also, inhibition at FMDV 3Dpol [4] was half-maximal at 10 µM (IC50).
In the data set “in vitro”, `O=C1C(Cl)=C(Sc2ccccc2Br)C(=O)c2ccccc21` [8C5] displayed a CC50 of 55 µM. Moreover, in data set [2], the “inhibition of HIV-1 RT polymerase activity” value was “No significant inhibition”. In addition, the “inhibition of viral replication” value in the data set with FMDV A24 Cruzeiro is on record as “inhibition of viral replication”. Further, the “inhibition of KF polymerase activity” value in data set [3] was “No significant inhibition”. Also, the IC50 at FMDV 3Dpol [4] and at WT 3Dpol was 5.4 µM each time.
For `NC(=O)c1ncn([C@@H]2O[C@H](CO)[C@@H](O)[C@H]2O)n1` [ribavirin], in the data set on FMDV, the EC50 was 970 µM and the EC90 is 1700 µM.
As to `CCOC(=O)/C(=N\Nc1ccc(Br)cc1)C(=O)CSC#N` [9A3], the CC50 in the data set “in vitro” was more than 100 µM. For the same molecule, the “inhibition of HIV-1 RT polymerase activity” value in data set [2] is “No significant inhibition”. Moreover, the “inhibition of KF polymerase activity” value in data set [3] is reported as “No significant inhibition”. For the same molecule, the IC50 against FMDV 3Dpol [4] is 10 µM.

The values above are taken from article PMC3006429 (PLoS ONE, 2010).
